Columns and labels:
TaFdcV = assay: Cycloadduct formation with TaFdcV followed by UV-Vis spectroscopy; type: binding, Trichoderma atroviride; conditions: for adduct formation / binding, reversibility after desalting: UV-Vis spectrum before and after a desalting step
[1] = target: E. coli deoxyribose-phosphate aldolase (Escherichia coli, UniProt P0A6L0); conditions: Racker et al. 1951; Jennewein et al. 2006; cited from earlier work
TaFdc = assay: Adduct formation with TaFdc wild-type followed by UV-Vis spectroscopy; conditions: UV-Vis spectrum before and after a desalting step

Sequence of E. coli deoxyribose-phosphate aldolase (P0A6L0 whole entry): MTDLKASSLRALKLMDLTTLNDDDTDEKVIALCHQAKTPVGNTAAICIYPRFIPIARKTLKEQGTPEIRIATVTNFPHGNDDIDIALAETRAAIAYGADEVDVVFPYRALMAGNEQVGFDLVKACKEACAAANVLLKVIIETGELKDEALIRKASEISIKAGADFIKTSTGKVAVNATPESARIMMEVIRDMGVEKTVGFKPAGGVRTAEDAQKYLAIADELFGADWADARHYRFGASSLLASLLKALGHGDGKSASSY

Molecule	adduct formation / binding, reversibility after desalting (TaFdcV)	inhibition of E. coli deoxyribose-phosphate aldolase [1]	further results
CC#CC(=O)O [2-butynoic acid]	a covalent inhibitory adduct is formed	–	–
OC(O)C(Cl)(Cl)Cl [chloral hydrate]	–	inhibit	–
O=CCCl [chloroacetaldehyde]	–	efficiently inhibit	–
C/C=C/C(=O)O [crotonic acid]	a covalent inhibitory adduct is formed	–	inhibition of the enzyme ferulic acid decarboxylase (FDC) (TaFdcV; FDC variant evolved to decarboxylate 3-methylcrotonic acid, FIG.2): irreversible inhibitor
CCC/C=C/C(=O)O [hexenoic acid, trans-2-hexenoic acid]	irreversibly binds	–	adduct formation / binding, reversibility after desalting (TaFdc): irreversibly binds
NO [hydroxylamine]	–	inhibit	–
CCCCCCCCO [octanol]	–	inhibit	–
CCC=O [propionaldehyde]	–	inhibit	–
pentenoic acid	irreversibly binds	–	adduct formation / binding, reversibility after desalting (TaFdc): irreversibly binds

Reference: patent EP4144838A1, “ORGANISMS PRODUCING LESS CROTONIC ACID” (Global Bioenergies, priority 2021, dated 2023)
